# According to paper PMC12469831, “The Odorant-Binding Proteins AspiOBP1 and AspiOBP2 in Aleurocanthus spiniferus Are Involved in the Perception of Host Volatiles” (International Journal of Molecular Sciences, 2025):
# Where a name gives a salt, the structure may show the parent alone.
# Molecular target: T1, AspiOBP2
# T1 construct: signal peptide removed; pET-30a(+) BamHI/EcoRI, E. coli BL21; His-tag kept; about 27 kDa predicted; clone primers encode mature start ETSTVDS and C-terminus PPPKP
# Experiment: fluorescent probe titration, Scatchard
# Assay type: binding, Aleurocanthus spiniferus
# Settings: 50 mmol/L Tris-HCl pH 7.4, 2 µmol/L protein, excitation 295 nm, His-tag kept
smiles,measurement,value
"O=S(=O)(O)c1cccc2c(-c3ccc(Nc4ccccc4)c4c(S(=O)(=O)O)cccc34)ccc(Nc3ccccc3)c12 [bis-ANS, 4,4′-Dianilino-1,1′-binaphthyl-5,5′-disulfonic acid, dipotassium salt]",Kd,2260 ± 470 nM
